Assays:
[1] = xn = mol fraction of the nth substance listed; settings: 101.32 kPa, Liquid, Vibrating tube method
[2] = excess molar enthalpy (molar enthalpy of mixing); xn = mol fraction of the nth substance listed; settings: 101 kPa, Liquid, Calvet calorimetry

CCCCCCCC [octane] + CCOC(C)=O
Settings	excess molar enthalpy [kcal/mol]	mass density [kg/m3]
[1], 291.15 K, x2 = 0	–	704.13
[1], 291.15 K, x2 = 0.0296	–	707.15
[1], 291.15 K, x2 = 0.0628	–	710.48
[1], 291.15 K, x2 = 0.1163	–	716.36
[1], 291.15 K, x2 = 0.1605	–	721.46
[1], 291.15 K, x2 = 0.2056	–	727.01
[1], 291.15 K, x2 = 0.2901	–	738.23
[1], 291.15 K, x2 = 0.3723	–	750.35
[1], 291.15 K, x2 = 0.4427	–	761.76
[1], 291.15 K, x2 = 0.5131	–	774.24
[1], 291.15 K, x2 = 0.5744	–	785.94
[1], 291.15 K, x2 = 0.6332	–	798.14
[1], 291.15 K, x2 = 0.6886	–	810.54
[1], 291.15 K, x2 = 0.7414	–	823.25
[1], 291.15 K, x2 = 0.7945	–	836.98
[1], 291.15 K, x2 = 0.84	–	849.83
[1], 291.15 K, x2 = 0.895	–	866.53
[1], 291.15 K, x2 = 0.9304	–	878.05
[1], 291.15 K, x2 = 0.9523	–	885.46
[1], 298.15 K, x2 = 0	–	698.6
[1], 298.15 K, x2 = 0.0485	–	703.3
[1], 298.15 K, x2 = 0.0998	–	708.8
[1], 298.15 K, x2 = 0.1711	–	716.9
[1], 298.15 K, x2 = 0.2518	–	727.02
[1], 298.15 K, x2 = 0.3198	–	736.29
[1], 298.15 K, x2 = 0.3814	–	745.42
[1], 298.15 K, x2 = 0.4622	–	758.48
[1], 298.15 K, x2 = 0.4977	–	764.69
[1], 298.15 K, x2 = 0.5598	–	776.23
[1], 298.15 K, x2 = 0.6548	–	795.8
[1], 298.15 K, x2 = 0.6729	–	799.8
[1], 298.15 K, x2 = 0.6865	–	802.9
[1], 298.15 K, x2 = 0.755	–	819.2
[1], 298.15 K, x2 = 0.7913	–	828.6
[1], 298.15 K, x2 = 0.8335	–	840.2
[1], 298.15 K, x2 = 0.8686	–	850.5
[1], 298.15 K, x2 = 0.9039	–	861.4
[1], 298.15 K, x2 = 0.9578	–	879.3
[1], 318.15 K, x2 = 0	–	682.16
[1], 318.15 K, x2 = 0.034	–	685.37
[1], 318.15 K, x2 = 0.108	–	692.6
[1], 318.15 K, x2 = 0.1961	–	702.19
[1], 318.15 K, x2 = 0.2859	–	713.24
[1], 318.15 K, x2 = 0.3635	–	723.8
[1], 318.15 K, x2 = 0.4203	–	732.23
[1], 318.15 K, x2 = 0.4875	–	743.04
[1], 318.15 K, x2 = 0.5678	–	757.24
[1], 318.15 K, x2 = 0.6088	–	765.1
[1], 318.15 K, x2 = 0.6633	–	776.23
[1], 318.15 K, x2 = 0.7123	–	786.92
[1], 318.15 K, x2 = 0.764	–	799.14
[1], 318.15 K, x2 = 0.8086	–	810.54
[1], 318.15 K, x2 = 0.8487	–	821.51
[1], 318.15 K, x2 = 0.8943	–	834.53
[1], 318.15 K, x2 = 0.932	–	846.34
[1], 318.15 K, x2 = 0.9762	–	860.93
[1], 328.15 K, x2 = 0	–	674.15
[1], 328.15 K, x2 = 0.0441	–	678
[1], 328.15 K, x2 = 0.1138	–	684.7
[1], 328.15 K, x2 = 0.2084	–	694.85
[1], 328.15 K, x2 = 0.2915	–	704.8
[1], 328.15 K, x2 = 0.3741	–	715.9
[1], 328.15 K, x2 = 0.4415	–	725.91
[1], 328.15 K, x2 = 0.5234	–	739.31
[1], 328.15 K, x2 = 0.5735	–	748.22
[1], 328.15 K, x2 = 0.6354	–	760.07
[1], 328.15 K, x2 = 0.6861	–	770.65
[1], 328.15 K, x2 = 0.7435	–	783.45
[1], 328.15 K, x2 = 0.7958	–	796.07
[1], 328.15 K, x2 = 0.8407	–	807.86
[1], 328.15 K, x2 = 0.8822	–	819.28
[1], 328.15 K, x2 = 0.927	–	832.83
[1], 328.15 K, x2 = 0.9737	–	848.01
[2], 291.15 K, x2 = 0.0994	0.146	–
[2], 291.15 K, x2 = 0.1715	0.23	–
[2], 291.15 K, x2 = 0.254	0.303	–
[2], 291.15 K, x2 = 0.3369	0.355	–
[2], 291.15 K, x2 = 0.4081	0.383	–
[2], 291.15 K, x2 = 0.474	0.399	–
[2], 291.15 K, x2 = 0.5317	0.4	–
[2], 291.15 K, x2 = 0.5698	0.392	–
[2], 291.15 K, x2 = 0.5955	0.386	–
[2], 291.15 K, x2 = 0.6441	0.371	–
[2], 291.15 K, x2 = 0.6953	0.344	–
[2], 291.15 K, x2 = 0.7435	0.313	–
[2], 291.15 K, x2 = 0.7996	0.272	–
[2], 291.15 K, x2 = 0.853	0.226	–
[2], 291.15 K, x2 = 0.8967	0.176	–
[2], 291.15 K, x2 = 0.9435	0.118	–
[2], 291.15 K, x2 = 0.981	0.0581	–
[2], 298.15 K, x2 = 0.0774	0.102	–
[2], 298.15 K, x2 = 0.1517	0.178	–
[2], 298.15 K, x2 = 0.2198	0.243	–
[2], 298.15 K, x2 = 0.2861	0.293	–
[2], 298.15 K, x2 = 0.3374	0.326	–
[2], 298.15 K, x2 = 0.3769	0.352	–
[2], 298.15 K, x2 = 0.4335	0.377	–
[2], 298.15 K, x2 = 0.4856	0.384	–
[2], 298.15 K, x2 = 0.5281	0.383	–
[2], 298.15 K, x2 = 0.5773	0.38	–
[2], 298.15 K, x2 = 0.6255	0.371	–
[2], 298.15 K, x2 = 0.6736	0.351	–
[2], 298.15 K, x2 = 0.7261	0.325	–
[2], 298.15 K, x2 = 0.7729	0.292	–
[2], 298.15 K, x2 = 0.8276	0.246	–
[2], 298.15 K, x2 = 0.8796	0.191	–
[2], 298.15 K, x2 = 0.9202	0.129	–
[2], 298.15 K, x2 = 0.9644	0.0648	–
[2], 318.15 K, x2 = 0.0832	0.111	–
[2], 318.15 K, x2 = 0.1591	0.195	–
[2], 318.15 K, x2 = 0.2322	0.267	–
[2], 318.15 K, x2 = 0.3009	0.319	–
[2], 318.15 K, x2 = 0.3637	0.353	–
[2], 318.15 K, x2 = 0.4184	0.374	–
[2], 318.15 K, x2 = 0.4655	0.384	–
[2], 318.15 K, x2 = 0.5112	0.388	–
[2], 318.15 K, x2 = 0.5525	0.386	–
[2], 318.15 K, x2 = 0.5886	0.382	–
[2], 318.15 K, x2 = 0.6324	0.371	–
[2], 318.15 K, x2 = 0.6807	0.355	–
[2], 318.15 K, x2 = 0.7307	0.328	–
[2], 318.15 K, x2 = 0.7788	0.293	–
[2], 318.15 K, x2 = 0.8291	0.248	–
[2], 318.15 K, x2 = 0.8801	0.192	–
[2], 318.15 K, x2 = 0.9259	0.13	–
[2], 318.15 K, x2 = 0.9646	0.0667	–

From the NIST ThermoML archive (doi:10.1021/je100832h)
